Results: patent US20030138419A1, “Recombinant antibody fusion proteins and methods for detection of apoptotic cells” (The University of Tennessee Research Corporation, priority 2001, published 2003)
Residues, ends and D or L forms follow the SMILES beside them. *: point of attachment. Cbz = O=C(OCc1ccccc1)*; CH2F = FC*

What was measured:
apoptotic Jurkat cells = assay: Confocal immunofluorescence microscopy of scFv and annexin V binding to apoptotic Jurkat cells; type: cell-based
Method: (§1) Jurkat cells were harvested from culture and resuspended at a density of 10^6 /ml in RPMI 1640 containing 10% fetal bovine'serum (FBS). Apoptosis was induced for 12 hours with 1.0 μM staurosporine (Sigma Chemical Co. of St. Louis, Mo.), 2.0 μM camptothecin (Sigma), or 2.0 μg/ml anti-Fas antibody (clone 7C11; Beckman Coulter Inc. of Brea, Calif.). To inhibit apoptosis, parallel cultures were pre-incubated for 2 hours with 20 μM z-Val-Ala-Asp(Ome)-fluoromethylketone (z-VAD(Ome)-FMK) (Enzyme System Products of Livermore, Calif.). To inhibit membrane blebbing, parallel cultures were pre-incubated for 2 hours with 10 μM Y-27632 (Tocris of Ballwin, Mo.). At the end of the incubation period, 5×10^5 cells were aliquoted into tubes and stained for flow cytometry or confocal microscopy.
Cells were washed with HBSS and fixed with ice-cold 4% paraformaldehyde for 10 minutes. […] After incubation with the scFv, cells were washed once with HBSS/FBS and incubated with biotinylated annexin V (BD Biosciences) for 15 minutes on ice. Cells were then washed twice with HBSS/FBS and stained with streptavidin-conjugated Alexaflour 488 (Molecular Probes), Rhodamine Red-conjugated human serum IgG (Jackson Immunoresearch Laboratories) and the nucleic acid dye TO-PRO-3 (Molecular Probes). Following staining for 15 minutes on ice, cells were washed with HBSS/FBS and mounted onto poly-L-lysine-coated glass slides for viewing with a Zeiss LSM 510 laser scanning microscope (Carl Zeiss, Inc. of Thorwood, N.Y.).
Cells were washed with HBSS and fixed with ice-cold 4% paraformaldehyde for 10 minutes. […] After incubation with the scFv, cells were washed once with HBSS/FBS and incubated with biotinylated annexin V (BD Biosciences) for 15 minutes on ice. Cells were washed twice with HBSS/FBS and stained with streptavidin-conjugated Alexaflour 488 (Molecular Probes), Rhodamine Red-conjugated human serum IgG (Jackson Immunoresearch Laboratories) and the nucleic acid dye TO-PRO-3 (Molecular Probes). After a 15 minute incubation on ice, cells were washed with HBSS/FBS and mounted onto poly-L-lysine-coated glass slides for viewing with a Zeiss LSM 510 laser scanning microscope (Carl Zeiss Inc., Thorwood, N.Y.).

Jurkat cells = assay: Flow cytometry of annexin V and scFv binding to Jurkat cells treated with staurosporine, camptothecin or anti-Fas (12 hr); type: cell-based
Method: as §1
Cells were washed with 4.0 ml of ice-cold Hanks Balanced Salt Solution (Mediatech, Herndon, Va.) containing 1.0 mM CaCl2, 3% FBS, and 0.02% NaN3 (HBSS/FBS). […] 30,000 events were examined per sample on a FACSCalibur (BD Biosciences). The staining profiles were analyzed using FLOWJO™ software (Treestar, Inc. of San Carlos, Calif.).

Structure (SMILES): C[C@@H](N)[C@H]1CC[C@H](C(=O)Nc2ccncc2)CC1 [Y-27632]
- effect on binding of annexin V (apoptotic Jurkat cells): did not affect
- blebbing and nuclear fragmentation (apoptotic Jurkat cells; anti-Fas treated cells, 10 μM): inhibited
- effect on binding of the D56R/S76R scFv (apoptotic Jurkat cells; anti-Fas treated cells, 10 μM): greatly reduced

Structure (SMILES): COC(=O)C[C@H](NC(=O)[C@H](C)NC(=O)[C@@H](NC(=O)OCc1ccccc1)C(C)C)C(=O)CF [z-VAD(OMe)-FMK, z-Val-Ala-Asp(Ome)-fluoromethylketone] (Cbz-Val-Ala-Asp(OMe)-CH2F)
- effect of pretreatment on binding of the D56R/S76R scFv (Jurkat cells; 20 μM, 2 hours pre-incubation): largely eliminated
- effect of pretreatment on staining with annexin V (Jurkat cells; 20 μM, 2 hours pre-incubation): decreased to near-background levels
- effect of pretreatment on staining of cells (apoptotic Jurkat cells; cells treated with camptothecin or anti-Fas antibody): greatly reduced
- effect of pretreatment on annexin V and scFv binding (apoptotic Jurkat cells; cells treated with staurosporine): reduces both annexin V and scFv binding to background levels

Structure (SMILES): CC[C@@]1(O)C(=O)OCc2c1cc1n(c2=O)Cc2cc3ccccc3nc2-1 [camptothecin]
- cells observed to bind annexin V (Jurkat cells; 12 hr incubation with the apoptotic stimulus): Approximately 29%
